In patent US20250313548A1 (Actio Biosciences, Inc., priority 2023, published 2025):
pIC50: −log10 of the molar value.

Biological target: human, KCNT1 (Homo sapiens (Human), UniProt Q5JUK3)
Experiment: FLIPR Tl/K Flux Assay
Format: cell-based
Details: HEK293 cells stably expressing human KCNT1; Tl+ flux stimulated with EC80 of agonist Loxapine
How it was run: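 Inhibition values come from a Hill-equation fit of % inhibition versus log concentration, using normalized fluorescence (Fmax/Fmin) over a 160 s read. The read followed stimulation with Tl+ plus EC80 agonist loxapine after 30 min compound pre-incubation at 25 °C. Cells were KCNT1-expressing HEK293, dye-loaded 1 h in pH 7.4 HEPES/HBSS with 5 mM probenecid.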

human, KCNT1, sequence (Q5JUK3 whole entry): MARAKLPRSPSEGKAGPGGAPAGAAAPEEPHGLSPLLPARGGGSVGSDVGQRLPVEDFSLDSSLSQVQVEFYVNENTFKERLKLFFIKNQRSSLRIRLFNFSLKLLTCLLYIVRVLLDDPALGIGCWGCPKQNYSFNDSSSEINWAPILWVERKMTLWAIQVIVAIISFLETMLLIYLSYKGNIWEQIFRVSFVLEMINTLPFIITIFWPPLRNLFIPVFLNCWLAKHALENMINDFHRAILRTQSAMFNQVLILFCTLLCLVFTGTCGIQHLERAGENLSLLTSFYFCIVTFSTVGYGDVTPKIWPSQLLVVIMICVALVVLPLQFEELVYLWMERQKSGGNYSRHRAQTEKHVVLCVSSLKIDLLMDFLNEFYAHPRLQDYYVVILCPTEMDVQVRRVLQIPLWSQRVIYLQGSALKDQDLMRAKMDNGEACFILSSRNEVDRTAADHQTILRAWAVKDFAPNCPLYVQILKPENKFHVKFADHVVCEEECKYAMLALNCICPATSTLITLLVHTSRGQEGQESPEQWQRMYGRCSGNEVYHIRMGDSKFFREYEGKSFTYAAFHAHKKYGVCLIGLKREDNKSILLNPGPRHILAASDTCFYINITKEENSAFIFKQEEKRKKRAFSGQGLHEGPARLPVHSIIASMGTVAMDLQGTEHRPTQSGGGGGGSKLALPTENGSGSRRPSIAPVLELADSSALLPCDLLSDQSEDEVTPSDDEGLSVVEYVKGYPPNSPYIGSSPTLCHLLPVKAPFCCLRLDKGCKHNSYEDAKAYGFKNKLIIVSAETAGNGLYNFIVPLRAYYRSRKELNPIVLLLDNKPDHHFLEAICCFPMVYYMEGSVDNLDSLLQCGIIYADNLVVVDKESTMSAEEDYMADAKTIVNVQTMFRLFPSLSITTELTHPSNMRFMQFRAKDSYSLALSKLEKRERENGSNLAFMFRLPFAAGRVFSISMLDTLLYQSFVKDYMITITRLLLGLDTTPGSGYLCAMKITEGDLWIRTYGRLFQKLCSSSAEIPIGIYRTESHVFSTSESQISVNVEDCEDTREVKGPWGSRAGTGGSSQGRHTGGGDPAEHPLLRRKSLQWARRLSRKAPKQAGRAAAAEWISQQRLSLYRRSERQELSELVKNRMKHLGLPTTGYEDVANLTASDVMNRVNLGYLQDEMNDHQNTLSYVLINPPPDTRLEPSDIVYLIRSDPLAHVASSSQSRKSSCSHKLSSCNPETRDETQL

Row | SMILES | pIC50
1 | CC12CC(C(=O)N[C@H]3CCn4nc(-c5cc(C(F)(F)F)ncc5F)cc43)(C1)C2 [Compound I-524a, (S)-N-(2-(5-Fluoro-2-(trifluoromethyl)pyridin-4-yl)-5,6-dihydro-4H-pyrrolo[1,2-b]pyrazol-4-yl)-3-methylbicyclo[1.1.1]pentane-1-carboxamide] | > 6.60
2 | O=C(N[C@H]1CCCn2nc(-c3ccnc(C(F)(F)F)c3)cc21)c1cnn(C(F)(F)F)c1C(F)(F)F [Compound I-529a, (S)-1,5-bis(trifluoromethyl)-N-(2-(2-(trifluoromethyl)pyridin-4-yl)-4,5,6,7-tetrahydropyrazolo[1,5-a]pyridin-4-yl)-1H-pyrazole-4-carboxamide] | > 6.60
3 | O=C(N[C@H]1CCCc2oc(-c3ccnc(C4CC4)c3)nc21)c1cnn(C(F)(F)F)c1C(F)(F)F [Compound I-530a, (S)—N-(2-(2-cyclopropylpyridin-4-yl)-4,5,6,7-tetrahydrobenzo[d]oxazol-4-yl)-1,5-bis(trifluoromethyl)-1H-pyrazole-4-carboxamide] | > 6.60
4 | O=C(N[C@H]1CCn2nc(-c3ccnc(C(F)(F)F)c3)cc21)c1cnn(C(F)(F)F)c1C(F)(F)F [Compound I-532a, (S)-1,5-bis(trifluoromethyl)-N-(2-(2-(trifluoromethyl)pyridin-4-yl)-5,6-dihydro-4H-pyrrolo[1,2-b]pyrazol-4-yl)-1H-pyrazole-4-carboxamide] | > 6.60
5 | CC(F)(F)c1cc(-c2nc3c(o2)CCC[C@@H]3NC(=O)c2cncc(C(F)(F)F)c2)ccn1 [Compound I-533a, (S)—N-(2-(2-(1,1-Difluoroethyl)pyridin-4-yl)-4,5,6,7-tetrahydrobenzo[d]oxazol-4-yl)-5-(trifluoromethyl)nicotinamide] | > 6.60
6 | O=C(N[C@H]1CCn2nc(-c3cc(C(F)(F)F)ncc3F)cc21)c1ccnc(OC(F)(F)F)c1 [Compound I-536a, (S)-N-(2-(5-Fluoro-2-(trifluoromethyl)pyridin-4-yl)-5,6-dihydro-4H-pyrrolo[1,2-b]pyrazol-4-yl)-2-(trifluoromethoxy)isonicotinamide] | > 6.60
7 | Cn1nc(C(F)(F)F)cc1C(=O)N[C@H]1CCn2nc(-c3ccnc(C(C)(F)F)c3)cc21 [Compound I-537a, (S)-N-(2-(2-(1,1-Difluoroethyl)pyridin-4-yl)-5,6-dihydro-4H-pyrrolo[1,2-b]pyrazol-4-yl)-1-methyl-3-(trifluoromethyl)-1H-pyrazole-5-carboxamide] | > 6.60
8 | O=C(N[C@H]1CCn2nc(-c3cc(C(F)(F)F)ncc3F)cc21)C12CC(CC(F)(F)F)(C1)C2 [Compound I-539a] | > 6.60
9 | O=C(N[C@H]1CCn2nc(-c3ccnc(C4CC4)c3)cc21)c1ccnc(OC(F)(F)F)c1 [Compound I-543a, (S)-N-(2-(2-Cyclopropylpyridin-4-yl)-5,6-dihydro-4H-pyrrolo[1,2-b]pyrazol-4-yl)-2-(trifluoromethoxy)isonicotinamide] | > 6.60
10 | CC(F)(F)c1cc(-c2nc3c(o2)CCC[C@@H]3NC(=O)c2cncc(F)c2)ccn1 [Compound I-544a, (S)—N-(2-(2-(1,1-difluoroethyl)pyridin-4-yl)-4,5,6,7-tetrahydrobenzo[d]oxazol-4-yl)-5-fluoronicotinamide] | > 6.60
11 | CC(C)Oc1cc(C(=O)N[C@H]2CCn3nc(-c4cc(C(F)(F)F)ncc4F)cc32)ccn1 [Compound I-546a, (S)-N-(2-(5-Fluoro-2-(trifluoromethyl)pyridin-4-yl)-5,6-dihydro-4H-pyrrolo[1,2-b]pyrazol-4-yl)-2-isopropoxyisonicotinamide] | > 6.60
12 | O=C(N[C@H]1CCn2nc(-c3cc(C(F)(F)F)ncc3F)cc21)c1ccn2nccc2c1 [Compound I-549a] | > 6.60
13 | O=C(N[C@H]1CCn2nc(-c3ccnc(C(F)(F)F)c3)cc21)c1ccn2nccc2c1 [Compound I-550a, (S)-N-(2-(2-(Trifluoromethyl)pyridin-4-yl)-5,6-dihydro-4H-pyrrolo[1,2-b]pyrazol-4-yl)pyrazolo[1,5-a]pyridine-5-carboxamide] | > 6.60
14 | O=C(N[C@H]1CCc2nn(-c3ccnc(C(F)(F)F)c3)cc21)C12CC(C(F)(F)F)(C1)C2 [Compound I-553a, (S)-3-(Trifluoromethyl)-N-(2-(2-(trifluoromethyl)pyridin-4-yl)-2,4,5,6-tetrahydrocyclopenta[c]pyrazol-4-yl)bicyclo[1.1.1]pentane-1-carboxamide] | > 6.60
15 | O=C(N[C@H]1CCCc2oc(-c3cc(C(F)(F)F)ncc3F)nc21)c1cccc(C(F)(F)F)c1 [Compound I-554a, (S)—N-(2-(5-Fluoro-2-(trifluoromethyl)pyridin-4-yl)-4,5,6,7-tetrahydrobenzo[d]oxazol-4-yl)-3-(trifluoromethyl)benzamide] | > 6.60
16 | Cc1nn(C(F)(F)F)cc1C(=O)N[C@H]1CCn2nc(-c3ccnc(C4CC4)c3)cc21 [Compound I-555a, (S)-N-(2-(2-Cyclopropylpyridin-4-yl)-5,6-dihydro-4H-pyrrolo[1,2-b]pyrazol-4-yl)-3-methyl-1-(trifluoromethyl)-1H-pyrazole-4-carboxamide] | > 6.60

Other lines, results leading:

Row | pIC50 | SMILES
17 | > 6.60 | COC12CC(C(=O)N[C@H]3CCn4nc(-c5cc(C(F)(F)F)ncc5F)cc43)(C1)C2 [Compound I-525a, (S)-N-(2-(5-Fluoro-2-(trifluoromethyl)pyridin-4-yl)-5,6-dihydro-4H-pyrrolo[1,2-b]pyrazol-4-yl)-3-methoxybicyclo[1.1.1]pentane-1-carboxamide]
18 | > 6.60 | CC(F)(F)C12CC(C(=O)N[C@H]3CCn4nc(-c5cc(C(F)(F)F)ncc5F)cc43)(C1)C2 [Compound I-526a, (S)-3-(1,1-Difluoroethyl)-N-(2-(5-fluoro-2-(trifluoromethyl)pyridin-4-yl)-5,6-dihydro-4H-pyrrolo[1,2-b]pyrazol-4-yl)bicyclo[1.1.1]pentane-1-carboxamide]
19 | > 6.60 | O=C(N[C@H]1CCn2nc(-c3cc(C(F)(F)F)ncc3F)cc21)C12CC(C(F)F)(C1)C2 [Compound I-527a, (S)-3-(Difluoromethyl)-N-(2-(5-fluoro-2-(trifluoromethyl)pyridin-4-yl)-5,6-dihydro-4H-pyrrolo[1,2-b]pyrazol-4-yl)bicyclo[1.1.1]pentane-1-carboxamide]
20 | > 6.60 | CC(F)(F)c1cc(C(=O)N[C@H]2CCn3nc(-c4ccnc(C(F)(F)F)c4)cc32)ccn1 [Compound I-528a, (S)-2-(1,1-Difluoroethyl)-N-(2-(2-(trifluoromethyl)pyridin-4-yl)-5,6-dihydro-4H-pyrrolo[1,2-b]pyrazol-4-yl)isonicotinamide]
21 | > 6.60 | O=C(N[C@H]1CCCc2oc(-c3ccnc(C(F)(F)F)c3)nc21)c1cnn(C(F)(F)F)c1C(F)(F)F [Compound I-531a, (S)-1,5-bis(trifluoromethyl)-N-(2-(2-(trifluoromethyl)pyridin-4-yl)-4,5,6,7-tetrahydrobenzo[d]oxazol-4-yl)-1H-pyrazole-4-carboxamide]
22 | > 6.60 | CC(F)(F)c1cc(-c2cc3n(n2)CC[C@@H]3NC(=O)c2cnn(C(F)(F)F)c2)ccn1 [Compound I-538a, (S)-N-(2-(2-(1,1-Difluoroethyl)pyridin-4-yl)-5,6-dihydro-4H-pyrrolo[1,2-b]pyrazol-4-yl)-1-(trifluoromethyl)-1H-pyrazole-4-carboxamide]
23 | > 6.60 | O=C(N[C@H]1CCn2nc(-c3cc(C(F)(F)F)ncc3F)cc21)C12CC(CF)(C1)C2 [Compound I-540a, (S)-N-(2-(5-Fluoro-2-(trifluoromethyl)pyridin-4-yl)-5,6-dihydro-4H-pyrrolo[1,2-b]pyrazol-4-yl)-3-(fluoromethyl)bicyclo[1.1.1]pentane-1-carboxamide]
24 | > 6.60 | CCOc1cc(C(=O)N[C@H]2CCn3nc(-c4ccnc(C5CC5)c4)cc32)ccn1 [Compound I-541a, (S)-N-(2-(2-Cyclopropylpyridin-4-yl)-5,6-dihydro-4H-pyrrolo[1,2-b]pyrazol-4-yl)-2-ethoxyisonicotinamide]
25 | > 6.60 | CC(C)Oc1cc(C(=O)N[C@H]2CCn3nc(-c4ccnc(C5CC5)c4)cc32)ccn1 [Compound I-542a, (S)-N-(2-(2-Cyclopropylpyridin-4-yl)-5,6-dihydro-4H-pyrrolo[1,2-b]pyrazol-4-yl)-2-isopropoxyisonicotinamide]
26 | > 6.60 | CC(F)(F)c1cc(-c2nc3c(o2)CCC[C@@H]3NC(=O)c2cn(C(F)(F)F)nc2C(F)(F)F)ccn1 [Compound I-545a, (S)—N-(2-(2-(1,1-difluoroethyl)pyridin-4-yl)-4,5,6,7-tetrahydrobenzo[d]oxazol-4-yl)-1,3-bis(trifluoromethyl)-1H-pyrazole-4-carboxamide]
27 | > 6.60 | O=C(N[C@H]1CCn2nc(-c3cc(C(F)(F)F)ncc3F)cc21)c1ccnc(OC(F)F)c1 [Compound I-547a, (S)-2-(Difluoromethoxy)-N-(2-(5-fluoro-2-(trifluoromethyl)pyridin-4-yl)-5,6-dihydro-4H-pyrrolo[1,2-b]pyrazol-4-yl)isonicotinamide]
28 | > 6.60 | Cn1nc(C(F)(F)F)nc1C(=O)N[C@H]1CCn2nc(-c3cc(C(F)(F)F)ncc3F)cc21 [Compound I-548a, (S)—N-(2-(5-Fluoro-2-(trifluoromethyl)pyridin-4-yl)-5,6-dihydro-4H-pyrrolo[1,2-b]pyrazol-4-yl)-1-methyl-3-(trifluoromethyl)-1H-1,2,4-triazole-5-carboxamide]
29 | > 6.60 | Cn1nc(C(F)(F)F)nc1C(=O)N[C@H]1CCCn2nc(-c3ccnc(C(C)(F)F)c3)cc21 [Compound I-551a, (S)-N-(2-(2-(1,1-Difluoroethyl)pyridin-4-yl)-4,5,6,7-tetrahydropyrazolo[1,5-a]pyridin-4-yl)-1-methyl-3-(trifluoromethyl)-1H-1,2,4-triazole-5-carboxamide]
30 | > 6.60 | O=C(N[C@H]1CCn2nc(-c3cc(C(F)(F)F)ncc3F)cc21)C12CC(F)(C1)C2 [Compound I-552a, (S)-3-Fluoro-N-(2-(5-fluoro-2-(trifluoromethyl)pyridin-4-yl)-5,6-dihydro-4H-pyrrolo[1,2-b]pyrazol-4-yl)bicyclo[1.1.1]pentane-1-carboxamide]
